Measured values published in patent US20110136801A1, “Novel Compounds” (Dainippon Sumitomo Pharma Co. Ltd., priority 2009, published 2011).

Biological target: T1, human TLR7 (Homo sapiens, UniProt Q9NYK1)
T1 construct: expressed in transfected cells; host or cells: HEK293 cell line stably expressing the pNiFty2-SEAP reporter plasmid; TLR7 in pUNO vector, blasticidin selection
T1 sequence (Q9NYK1 27-1049): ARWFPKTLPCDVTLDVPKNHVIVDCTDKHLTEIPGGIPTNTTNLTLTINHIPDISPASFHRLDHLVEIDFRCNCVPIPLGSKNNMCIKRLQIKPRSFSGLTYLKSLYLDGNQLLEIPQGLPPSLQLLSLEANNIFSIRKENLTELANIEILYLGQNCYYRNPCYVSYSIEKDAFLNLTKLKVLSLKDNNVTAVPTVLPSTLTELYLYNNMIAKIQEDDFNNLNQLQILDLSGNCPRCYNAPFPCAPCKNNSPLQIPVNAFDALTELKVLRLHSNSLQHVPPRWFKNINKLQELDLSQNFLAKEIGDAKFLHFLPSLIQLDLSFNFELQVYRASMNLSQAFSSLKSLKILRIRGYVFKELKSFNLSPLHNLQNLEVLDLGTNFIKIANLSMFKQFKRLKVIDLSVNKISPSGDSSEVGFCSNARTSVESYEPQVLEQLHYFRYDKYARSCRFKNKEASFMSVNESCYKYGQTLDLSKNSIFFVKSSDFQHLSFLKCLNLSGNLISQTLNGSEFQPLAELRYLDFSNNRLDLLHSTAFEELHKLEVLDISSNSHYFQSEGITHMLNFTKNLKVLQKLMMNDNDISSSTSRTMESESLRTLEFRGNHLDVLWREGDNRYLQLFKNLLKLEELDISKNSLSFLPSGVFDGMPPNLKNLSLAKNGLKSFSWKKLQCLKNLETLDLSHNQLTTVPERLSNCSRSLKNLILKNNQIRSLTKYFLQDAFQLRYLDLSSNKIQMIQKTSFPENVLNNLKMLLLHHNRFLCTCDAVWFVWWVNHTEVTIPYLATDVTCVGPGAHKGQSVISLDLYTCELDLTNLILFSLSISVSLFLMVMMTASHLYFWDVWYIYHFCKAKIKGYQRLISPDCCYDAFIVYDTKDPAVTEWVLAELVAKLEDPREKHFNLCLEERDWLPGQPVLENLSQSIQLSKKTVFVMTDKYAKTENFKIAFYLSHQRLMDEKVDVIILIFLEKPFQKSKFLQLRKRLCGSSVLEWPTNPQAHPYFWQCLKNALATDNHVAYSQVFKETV
Test: Human TLR7 Assay (SEAP reporter in HEK293 cells);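 further: Read-out is secreted alkaline phosphatase made under an NFkB/ELAM-1 composite promoter, reporting TLR7-triggered NFkB activation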
Assay type: cell-based
Details: HEK293 cell line expressing human TLR7 and pNiFty2-SEAP reporter, overnight incubation at 37° C., 0.1% DMSO; read-out: hTLR7 EC50

For CCOC(=O)COc1cccc(CN(CCCn2c(CCOC)nc3c(N)nc4ccccc4c32)C(=O)CN(CC)CC)c1F [Example 93, Ethyl 2-{3-[(N-{3-[4-amino-2-(2-methoxyethyl)-1H-imidazo[4,5-c]quinolin-1-yl]propyl}-2-{diethylamino}acetamido)methyl]-2-fluorophenoxy}acetate], the EC50 was 73.9 nM.

With COCCc1nc2c(N)nc3ccccc3c2n1CCCCN(CCN(C)C)Cc1cccc(OCC(=O)OC(C)C)c1 [Example 132, Isopropyl 2-{3-[({4-[4-amino-2-(2-methoxyethyl)-1H-imidazo[4,5-c]quinolin-1-yl]butyl}{2-[dimethylamino]ethyl}amino)methyl]phenoxy}acetate] the EC50 was 56.4 nM.

CCOC(=O)C(CC)Oc1cccc(CN(CCCn2c(CCOC)nc3c(N)nc4ccccc4c32)C(=O)CN(CC)CC)c1 (centres unmarked) [Example 71, Ethyl 2-{3-[(N-{3-[4-amino-2-(2-methoxyethyl)-1H-imidazo[4,5-c]quinolin-1-yl]propyl}-2-{diethylamino}acetamido)methyl]phenoxy}butanoate] gave an EC50 of 23 nM.

In the case of CCOCc1nc2c(N)nc3ccccc3c2n1CCCN(Cc1cccc(OC(C)(C)C(=O)OCC)c1)C(=O)CN(CC)CC [Example 162, Ethyl 2-{3-[(N-{3-[4-amino-2-(ethoxymethyl)-1H-imidazo[4,5-c]quinolin-1-yl]propyl}-2-{diethylamino}acetamido)methyl]phenoxy}-2-methylpropanoate], the EC50 is reported as 96.4 nM.

For CCOCc1nc2c(N)nc3ccccc3c2n1CCCN(Cc1cccc(OC(C)(C)C(=O)OCC)c1)C(=O)CN1CCCC1 [Example 170, Ethyl 2-{3-[(N-{3-[4-amino-2-(ethoxymethyl)-1H-imidazo[4,5-c]quinolin-1-yl]propyl}-2-{pyrrolidin-1-yl}acetamido)methyl]phenoxy}-2-methylpropanoate], the EC50 was 521 nM.

Compound COCCc1nc2c(N)nc3ccccc3c2n1CCCN(Cc1cccc(OC(C)(C)C(=O)OC)c1)C(=O)CN(C)C [Example 149, Methyl 2-{3-[(N-{3-[4-amino-2-(2-methoxyethyl)-1H-imidazo[4,5-c]quinolin-1-yl]propyl}-2-{dimethylamino}acetamido)methyl]phenoxy}-2-methylpropanoate] has an EC50 of 181 nM.

For CCOCc1nc2c(N)nc3ccccc3c2n1CCCN(Cc1cccc(OCC(=O)OC(C)C)c1)C(=O)CN1CCCC1 [Example 172, Isopropyl 2-{3-[(N-{3-[4-amino-2-(ethoxymethyl)-1H-imidazo[4,5-c]quinolin-1-yl]propyl}-2-{pyrrolidin-1-yl}acetamido)methyl]phenoxy}acetate], the EC50 was 434 nM.

Work on COCCc1nc2c(N)nc3ccccc3c2n1CCOCCN(Cc1cccc(OCC(=O)OC(C)C)c1)C(=O)NCCN1CCCCC1 [Example 152, Isopropyl 2-(3-{[1-(2-{2-[4-amino-2-(2-methoxyethyl)-1H-imidazo[4,5-c]quinolin-1-yl]ethoxy}ethyl)-3-{2-(piperidin-1-yl)ethyl}ureido]methyl}phenoxy)acetate] yielded an EC50 of 266 nM.

In the case of CCN(CC)CC(=O)N(CCn1c(CCOC)nc2c(N)nc3ccccc3c21)Cc1cccc(OCC(=O)OC(C)C)c1 [Example 103, Isopropyl 2-{3-[(N-{2-[4-amino-2-(2-methoxyethyl)-1H-imidazo[4,5-c]quinolin-1-yl]ethyl}-2-{diethylamino}acetamido)methyl]phenoxy}acetate], the EC50 is reported as > 10000 nM.

In the case of CCCCc1nc2c(N)nc3ccccc3c2n1CCCN(Cc1cccc(OCC(=O)OC(C)C)c1F)C(=O)CN(C)C [Example 165, Isopropyl 2-[3-({N-[3-(4-amino-2-butyl-1H-imidazo[4,5-c]quinolin-1-yl)propyl]-2-(dimethylamino)acetamido}methyl)-2-fluorophenoxy]acetate], the EC50 is reported as 297 nM.

Work on CCCOCc1nc2c(N)nc3ccccc3c2n1CCCN(Cc1cccc(OC(C)(C)C(=O)OC)c1)C(=O)CN(CC)CC [Example 174, Methyl 2-{3-[(N-{3-[4-amino-2-(propoxymethyl)-1H-imidazo[4,5-c]quinolin-1-yl]propyl}-2-{diethylamino}acetamido)methyl]phenoxy}-2-methylpropanoate] yielded an EC50 of 117 nM.

CCN(CC)CC(=O)N(CCCn1c(CCOC)nc2c(N)nc3ccccc3c21)Cc1ccc(OC)c(OCC(=O)OC)c1 [Example 63, Methyl 2-{5-[(N-{3-[4-amino-2-(2-methoxyethyl)-1H-imidazo[4,5-c]quinolin-1-yl]propyl}-2-{diethylamino}acetamido)methyl]-2-methoxyphenoxy}acetate] gave an EC50 of 212 nM.

Work on CCCOC(=O)COc1cccc(CN(CCCn2c(CCOC)nc3c(N)nc4ccccc4c32)C(=O)CN(CC)CC)c1 [Example 26, Propyl 2-{3-[(N-{3-[4-amino-2-(2-methoxyethyl)-1H-imidazo[4,5-c]quinolin-1-yl]propyl}-2-(diethylamino)acetamido)methyl]phenoxy}acetate] yielded an EC50 of 54.6 nM.

Work on CCN(CC)CC(=O)N(CCCn1c(CCOC)nc2c(N)nc3ccccc3c21)Cc1cc(F)cc(OCC(=O)OC(C)C)c1 [Example 123, Isopropyl 2-{3-[(N-{3-[4-amino-2-(2-methoxyethyl)-1H-imidazo[4,5-c]quinolin-1-yl]propyl}-2-{diethylamino}acetamido)methyl]-5-fluorophenoxy}acetate] yielded an EC50 of 50.2 nM.

COCCc1nc2c(N)nc3ccccc3c2n1CCCN(Cc1cccc(OCC(=O)OC(C)C)c1)C(=O)CN(C)C [Example 113, Isopropyl 2-{3-[(N-{3-[4-amino-2-(2-methoxyethyl)-1H-imidazo[4,5-c]quinolin-1-yl]propyl}-2-{dimethylamino}acetamido)methyl]phenoxy}acetate] was tested, and the EC50 was 83.4 nM.

CCOC(=O)COc1cc(CN(CCCn2c(CCOC)nc3c(N)nc4ccccc4c32)C(=O)CN(CC)CC)ccc1OC [Example 62, Ethyl 2-{5-[(N-{3-[4-amino-2-(2-methoxyethyl)-1H-imidazo[4,5-c]quinolin-1-yl]propyl}-2-{diethylamino}acetamido)methyl]-2-methoxyphenoxy}acetate] gave an EC50 of 84.2 nM.

Compound CCOC(=O)COc1cccc(CN(CCCn2c(CCOC)nc3c(N)nc4ccccc4c32)C(=O)CN(CC)CC)c1 [Example 25, Ethyl 2-{3-[(N-{3-[4-amino-2-(2-methoxyethyl)-1H-imidazo[4,5-c]quinolin-1-yl]propyl}-2-(diethylamino)acetamido)methyl]phenoxy}acetate] has an EC50 of 58.7 nM.

Compound COCCc1nc2c(N)nc3ccccc3c2n1CCCN(Cc1cccc(OCC(=O)OC(C)C)c1)C(=O)CN(C)CCOC [Example 115, Isopropyl 2-{3-[(N-{3-[4-amino-2-(2-methoxyethyl)-1H-imidazo[4,5-c]quinolin-1-yl]propyl}-2-{(2-methoxyethyl)(methyl)amino}acetamido)methyl]phenoxy}acetate] has an EC50 of 173 nM.

Compound COCCc1nc2c(N)nc3ccccc3c2n1CCCCNC(=O)N(CCN1CCCCC1)Cc1ccc(F)c(OCC(=O)OC(C)C)c1 [Example 142, Isopropyl 2-{5-[(3-{4-[4-amino-2-(2-methoxyethyl)-1H-imidazo[4,5-c]quinolin-1-yl]butyl}-1-{2-(piperidin-1-yl)ethyl}ureido)methyl]-2-fluorophenoxy}acetate] has an EC50 of 57.5 nM.

CCCc1nc2c(N)nc3ccccc3c2n1CCCN(Cc1cccc(OCC(=O)OC(C)C)c1)C(=O)CN(CC)CC [Example 160, Isopropyl 2-[3-({N-[3-(4-amino-2-propyl-1H-imidazo[4,5-c]quinolin-1-yl)propyl]-2-(diethylamino)acetamido}methyl)phenoxy]acetate] was tested, and the EC50 was 260 nM.

Work on CCOC(=O)COc1cccc(CN(CCCn2c(CCOC)nc3c(N)nc4ccccc4c32)C(=O)CN(C)C)c1F [Example 95, Ethyl 2-{3-[(N-{3-[4-amino-2-(2-methoxyethyl)-1H-imidazo[4,5-c]quinolin-1-yl]propyl}-2-{dimethylamino}acetamido)methyl]-2-fluorophenoxy}acetate] yielded an EC50 of 447 nM.

CCOC(=O)COc1cccc(CN(CCN2CCCCC2)C(=O)NCCCCn2c(CCOC)nc3c(N)nc4ccccc4c32)c1 [Example 130, Ethyl 2-{3-[(3-{4-[4-amino-2-(2-methoxyethyl)-1H-imidazo[4,5-c]quinolin-1-yl]butyl}-1-{2-(piperidin-1-yl)ethyl}ureido)methyl]phenoxy}acetate] was tested, and the EC50 was 24.4 nM.

Compound CCCCc1nc2c(N)nc3ccccc3c2n1CCCN(Cc1cccc(OCC(=O)OC)c1)C(=O)CN(CC)CC [Example 14, Methyl (3-{[[3-(4-amino-2-butyl-1H-imidazo[4,5-c]quinolin-1-yl)propyl](N,N-diethylglycyl)amino]methyl}phenoxy)acetate] has an EC50 of 73.6 nM.
